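At the GI50, growth is halved. TGI: total growth inhibition.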
Assays:
Assay in all cases: NCI anticancer screen, dose series, 384-well format
786-0 renal = test system: 786-0 renal
A498 renal = test system: A498 renal
A549 NSCLC = test system: A549 NSCLC
ACHN renal = test system: ACHN renal
BT-549 breast = test system: BT-549 breast
CAKI-1 renal = test system: CAKI-1 renal
CCRF-CEM leukemia = test system: CCRF-CEM leukemia
COLO 205 colon = test system: COLO 205 colon
DU-145 prostate = test system: DU-145 prostate
HCC-2998 colon = test system: HCC-2998 colon
HCT-116 colon = test system: HCT-116 colon
HCT-15 colon = test system: HCT-15 colon
HL-60(TB) leukemia = test system: HL-60(TB) leukemia
HOP-62 NSCLC = test system: HOP-62 NSCLC
HOP-92 NSCLC = test system: HOP-92 NSCLC
HT29 colon = test system: HT29 colon
IGROV1 ovarian = test system: IGROV1 ovarian
K-562 leukemia = test system: K-562 leukemia
KM12 colon = test system: KM12 colon
LOX IMVI melanoma = test system: LOX IMVI melanoma
M14 melanoma = test system: M14 melanoma
MALME-3M melanoma = test system: MALME-3M melanoma
MCF7 breast = test system: MCF7 breast
MDA-MB-231 breast = test system: MDA-MB-231 breast
MDA-MB-435 melanoma = test system: MDA-MB-435 melanoma
MDA-MB-468 breast = test system: MDA-MB-468 breast
MOLT-4 leukemia = test system: MOLT-4 leukemia
NCI-H226 lung = test system: NCI-H226 lung
NCI-H23 lung = test system: NCI-H23 lung
NCI-H322M lung = test system: NCI-H322M lung
NCI-H460 NSCLC = test system: NCI-H460 NSCLC
NCI-H522 lung = test system: NCI-H522 lung
NCI/ADR-RES ovarian = test system: NCI/ADR-RES ovarian
OVCAR-3 ovarian = test system: OVCAR-3 ovarian
OVCAR-4 ovarian = test system: OVCAR-4 ovarian
OVCAR-5 ovarian = test system: OVCAR-5 ovarian
OVCAR-8 ovarian = test system: OVCAR-8 ovarian
PC-3 prostate = test system: PC-3 prostate
RPMI-8226 leukemia = test system: RPMI-8226 leukemia
RXF 393 renal = test system: RXF 393 renal
SF-268 CNS = test system: SF-268 CNS
SF-295 CNS = test system: SF-295 CNS
SF-539 CNS = test system: SF-539 CNS
SK-MEL-2 melanoma = test system: SK-MEL-2 melanoma
SK-MEL-28 melanoma = test system: SK-MEL-28 melanoma
SK-MEL-5 melanoma = test system: SK-MEL-5 melanoma
SK-OV-3 ovarian = test system: SK-OV-3 ovarian
SN12C renal = test system: SN12C renal
SNB-19 CNS = test system: SNB-19 CNS
SR leukemia = test system: SR leukemia
SW-620 colon = test system: SW-620 colon
T-47D breast = test system: T-47D breast
TK-10 renal = test system: TK-10 renal
U251 glioblastoma = test system: U251 glioblastoma
UACC-257 melanoma = test system: UACC-257 melanoma
UACC-62 melanoma = test system: UACC-62 melanoma
UO-31 renal = test system: UO-31 renal

CNC[C@@H](NC(=O)c1ccc(-c2nc([C@H]3CC[C@H](O)[C@@H](F)C3)cnc2N)cc1F)c1cc(F)cc(Br)c1 gave a GI50 ([…]-0 renal) of 15 µM, a TGI (786-0 renal) of 28.3 µM and a GI50 (A498 renal) of 16.6 µM. The TGI (A498 renal) was 30.3 µM, the GI50 (A549 NSCLC) was 17 µM and the TGI (A549 NSCLC) was 31.1 µM. For the same compound, the GI50 (ACHN renal) was 16.9 µM, the TGI (ACHN renal) was 30.6 µM and the GI50 (BT-549 breast) was 13.7 µM. It also gave a TGI (BT-549 breast) of 26.6 µM, a GI50 (CAKI-1 renal) of 16.9 µM and a TGI (CAKI-1 renal) of 30.9 µM. It also gave a GI50 (CCRF-CEM leukemia) of 16.8 µM, a TGI (CCRF-CEM leukemia) of 30.5 µM and a GI50 (COLO 205 colon) of 16.4 µM. It also gave a TGI (COLO 205 colon) of 30.1 µM, a GI50 (DU-145 prostate) of 18.5 µM and a TGI (DU-145 prostate) of 32.8 µM. The GI50 (HCC-2998 colon) was 17.2 µM, the TGI (HCC-2998 colon) was 31 µM and the GI50 (HCT-116 colon) was 16.8 µM. For the same compound, the TGI (HCT-116 colon) was 30.6 µM, the GI50 (HCT-15 colon) was 19.4 µM and the TGI (HCT-15 colon) was 33.7 µM. It also gave a GI50 (HL-60(TB) leukemia) of 13.9 µM, a TGI (HL-60(TB) leukemia) of 26.9 µM and a GI50 (HOP-62 NSCLC) of 17.8 µM. For the same compound, the TGI (HOP-62 NSCLC) was 31.7 µM, the GI50 (HOP-92 NSCLC) was 16.8 µM and the TGI (HOP-92 NSCLC) was 30.6 µM. The GI50 (HT29 colon) was 16.1 µM, the TGI (HT29 colon) was 29.9 µM and the GI50 (IGROV1 ovarian) was 17.9 µM. It also gave a TGI (IGROV1 ovarian) of 34.5 µM, a GI50 (K-562 leukemia) of 16.8 µM and a TGI (K-562 leukemia) of 30.5 µM. For the same compound, the GI50 (KM12 colon) was 17.5 µM, the TGI (KM12 colon) was 31.5 µM and the GI50 (LOX IMVI melanoma) was 23.1 µM. It also gave a TGI (LOX IMVI melanoma) of 37.7 µM, a GI50 (M14 melanoma) of 18.2 µM and a TGI (M14 melanoma) of 32.2 µM. For the same compound, the GI50 (MALME-3M melanoma) was 17.1 µM, the TGI (MALME-3M melanoma) was 30.9 µM and the GI50 (MCF7 breast) was 18 µM. It also gave a TGI (MCF7 breast) of 31.9 µM, a GI50 (MDA-MB-231 breast) of 20.1 µM and a TGI (MDA-MB-231 breast) of 34.4 µM. For the same compound, the GI50 (MDA-MB-435 melanoma) was 20.3 µM, the TGI (MDA-MB-435 melanoma) was 34.7 µM and the GI50 (MDA-MB-468 breast) was 18.3 µM. It also gave a TGI (MDA-MB-468 breast) of 32.2 µM, a GI50 (MOLT-4 leukemia) of 17.7 µM and a TGI (MOLT-4 leukemia) of 31.6 µM. For the same compound, the GI50 (NCI-H226 lung) was 18.6 µM, the TGI (NCI-H226 lung) was 33 µM and the GI50 (NCI-H23 lung) was 19.4 µM. The TGI (NCI-H23 lung) was 36.9 µM, the GI50 (NCI-H322M lung) was 18.7 µM and the TGI (NCI-H322M lung) was 33.4 µM. The GI50 (NCI-H460 NSCLC) was 18.8 µM, the TGI (NCI-H460 NSCLC) was 33.2 µM and the GI50 (NCI-H522 lung) was 18.2 µM. For the same compound, the TGI (NCI-H522 lung) was 32.1 µM, the GI50 (NCI/ADR-RES ovarian) was 48.5 µM and the TGI (NCI/ADR-RES ovarian) was over 100 µM. The GI50 (OVCAR-3 ovarian) was 18 µM, the TGI (OVCAR-3 ovarian) was 32 µM and the GI50 (OVCAR-4 ovarian) was 19.9 µM. It also gave a TGI (OVCAR-4 ovarian) of 36.1 µM, a GI50 (OVCAR-5 ovarian) of 17.5 µM and a TGI (OVCAR-5 ovarian) of 33.5 µM. It also gave a GI50 (OVCAR-8 ovarian) of 18.9 µM, a TGI (OVCAR-8 ovarian) of 33.1 µM and a GI50 (PC-3 prostate) of 17.6 µM. For the same compound, the TGI (PC-3 prostate) was 31.5 µM, the GI50 (RPMI-8226 leukemia) was 12.4 µM and the TGI (RPMI-8226 leukemia) was 24.9 µM. For the same compound, the GI50 (RXF 393 renal) was 15.3 µM, the TGI (RXF 393 renal) was 28.7 µM and the GI50 (SF-268 CNS) was 17.2 µM. For the same compound, the TGI (SF-268 CNS) was 31.1 µM, the GI50 (SF-295 CNS) was 18.5 µM and the TGI (SF-295 CNS) was 32.6 µM. For the same compound, the GI50 (SF-539 CNS) was 17.2 µM, the TGI (SF-539 CNS) was 31 µM and the GI50 (SK-MEL-2 melanoma) was 20.5 µM. It also gave a TGI (SK-MEL-2 melanoma) of 34.8 µM, a GI50 (SK-MEL-28 melanoma) of 18.8 µM and a TGI (SK-MEL-28 melanoma) of 33 µM. For the same compound, the GI50 (SK-MEL-5 melanoma) was 20.8 µM, the TGI (SK-MEL-5 melanoma) was 35.2 µM and the GI50 (SK-OV-3 ovarian) was 16.9 µM. It also gave a TGI (SK-OV-3 ovarian) of 30.7 µM, a GI50 (SN12C renal) of 18.5 µM and a TGI (SN12C renal) of 32.5 µM. It also gave a GI50 (SNB-19 CNS) of 19.1 µM, a TGI (SNB-19 CNS) of 33.3 µM and a GI50 (SR leukemia) of 12.1 µM. The TGI (SR leukemia) was 24.5 µM, the GI50 (SW-620 colon) was 20.6 µM and the TGI (SW-620 colon) was 35.1 µM. For the same compound, the GI50 (T-47D breast) was 22.5 µM, the TGI (T-47D breast) was 37.2 µM and the GI50 (TK-10 renal) was 17 µM. For the same compound, the TGI (TK-10 renal) was 31.4 µM, the GI50 (U251 glioblastoma) was 17.5 µM and the TGI (U251 glioblastoma) was 31.4 µM. For the same compound, the GI50 (UACC-257 melanoma) was 14.6 µM, the TGI (UACC-257 melanoma) was 27.8 µM and the GI50 (UACC-62 melanoma) was 16.7 µM. It also gave a TGI (UACC-62 melanoma) of 30.5 µM, a GI50 (UO-31 renal) of 1.39 µM and a TGI (UO-31 renal) of 2.87 µM.

Reference: PubChem BioAssay (NCI)
